Experimental findings from US11891387B2, “Monoacylglycerol lipase modulators” (Janssen Pharmaceutica NV, priority 2020, dated 2024) are described below.

The target of the test is human MGL from HeLa cells (Homo sapiens (Human), UniProt Q99685). The test can be described thus: MGL in vitro activity assay: cleavage of [glycerol-1,3-3H]-oleyl glycerol, activated carbon filtration. The format is biochemical. The note with it: 300 nM [Glycerol-1,3-3H]-oleyl glycerol, endogenously expressed MGL from HeLa cells, one hour incubation. As for the experimental part: The assay used to measure the in vitro activity of MGL is adapted from the assay used for another serine hydrolase (FAAH) described in Wilson et al., 2003 (A high-throughput-compatible assay for determining the activity of fatty acid amide hydrolase. Wilson S J, Lovenberg T W, Barbier A J. Anal Biochem. 2003 Jul. 15; 318(2):270-5.). The assay consists of combining endogenously expressed MGL from HeLa cells with test compounds, adding [glycerol-1,3-^3H]-oleyl glycerol, incubating for one hour, and then measuring the amount of cleaved [1,3-^3H]-glycerol that passes through an activated carbon filter. The amount of cleaved, tritiated glycerol passing through the carbon filter is proportional to the activity of the MGL enzyme in a particular well/test condition.
human MGL from HeLa cells, sequence (Q99685 whole entry): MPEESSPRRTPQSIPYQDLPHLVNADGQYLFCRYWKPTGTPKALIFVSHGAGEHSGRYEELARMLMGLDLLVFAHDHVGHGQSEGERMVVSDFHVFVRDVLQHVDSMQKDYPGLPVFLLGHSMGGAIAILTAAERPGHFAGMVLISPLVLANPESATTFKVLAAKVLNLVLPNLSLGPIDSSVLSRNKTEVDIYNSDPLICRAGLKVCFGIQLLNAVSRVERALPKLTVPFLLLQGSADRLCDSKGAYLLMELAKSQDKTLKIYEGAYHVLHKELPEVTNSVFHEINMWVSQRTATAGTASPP
Standard conditions for this assay combine 300 nM [Glycerol-1,3-^3H]-oleyl glycerol with human MGL from HeLa cells and test compounds for one hour, after which the reaction is filtered through activated carbon and tritium is measured in the flow through. The test compound concentration in screening mode is 10 μM, while the highest compound concentration in IC50 assays is determined empirically. MGL is the predominant hydrolase in HeLa cells/cell homogenates.

A word on the IC50: it is the concentration needed to halve the response being measured. A lower IC50 goes with greater potency. For `Cn1nc(-c2c3c(nn2C)[C@@H]2CCC[C@H](C3)N2C(=O)c2ccc3ncccc3c2)cc1C(F)(F)F` [Example 87, ((5R,9S)-2-Methyl-3-(1-methyl-5-(trifluoromethyl)-1H-pyrazol-3-yl)-4,5,6,7,8,9-hexahydro-2H-5,9-epiminocycloocta[c]pyrazol-10-yl)(quinolin-6-yl)methanone], the IC50 is 0.017 µM. In the case of `Cc1cc(C(=O)N2CCc3c(nn(C)c3-c3cc(C(F)(F)F)nn3C)[C@@H]2C)c2cnn(C)c2n1` [Example 15, (S)-(1,6-Dimethyl-1H-pyrazolo[3,4-b]pyridin-4-yl)(2,7-dimethyl-3-(1-methyl-3-(trifluoromethyl)-1H-pyrazol-5-yl)-2,4,5,7-tetrahydro-6H-pyrazolo[3,4-c]pyridin-6-yl)methanone], the IC50 was found to be 0.056 µM. In the case of `COc1cccc(C(=O)N2CCc3c(nn(C)c3-c3c(C(F)(F)F)nn(C)c3C)[C@@H]2C)c1C` [Example 3, (S)-(3-(1,5-Dimethyl-3-(trifluoromethyl)-1H-pyrazol-4-yl)-2,7-dimethyl-2,4,5,7-tetrahydro-6H-pyrazolo[3,4-c]pyridin-6-yl)(3-methoxy-2-methylphenyl)methanone], it took 6.7 µM to reach half-maximal inhibition (IC50). With `CCn1ccc(-c2c3c(nn2C)[C@H](C)N(C(=O)c2ccc4ncccc4c2)CC3)n1` [Example 66, (S)-(3-(1-Ethyl-1H-pyrazol-3-yl)-2,7-dimethyl-2,4,5,7-tetrahydro-6H-pyrazolo[3,4-c]pyridin-6-yl)(quinolin-6-yl)methanone] the figure was 4 µM; with `COc1ccc(C(=O)N2CCc3c(nn(C)c3-c3cc(C(F)(F)F)nn3C)[C@@H]2C)c(C)c1` [Example 40, (S)-(2,7-Dimethyl-3-(1-methyl-3-(trifluoromethyl)-1H-pyrazol-5-yl)-2,4,5,7-tetrahydro-6H-pyrazolo[3,4-c]pyridin-6-yl)(4-methoxy-2-methylphenyl)methanone], 0.23 µM. Then `Cc1cc(C(=O)N2[C@@H]3CCC[C@H]2c2nn(C)c(-c4cc(C(F)(F)F)n(C)n4)c2C3)c2cc(F)ccc2n1` [Example 88, (6-Fluoro-2-methylquinolin-4-yl)((5R,9S)-2-methyl-3-(1-methyl-5-(trifluoromethyl)-1H-pyrazol-3-yl)-4,5,6,7,8,9-hexahydro-2H-5,9-epiminocycloocta[c]pyrazol-10-yl)methanone], with 0.0066 µM; and `Cc1ccc(C(=O)N2[C@@H]3CCC[C@H]2c2nn(C)c(-c4cc(C)nn4C)c2C3)c(F)c1` (stereo in doubt) [Example 72, ((5R,9S)-3-(1,3-Dimethyl-1H-pyrazol-5-yl)-2-methyl-4,5,6,7,8,9-hexahydro-2H-5,9-epiminocycloocta[c]pyrazol-10-yl)(2-fluoro-4-methylphenyl)methanone], with 1.13 µM; and `C[C@H]1c2nn(C)c(-c3cc(C(F)(F)F)nn3C)c2CCN1C(=O)c1cccc2c1ccn2C` [Example 45, (S)-(2,7-Dimethyl-3-(1-methyl-3-(trifluoromethyl)-1H-pyrazol-5-yl)-2,4,5,7-tetrahydro-6H-pyrazolo[3,4-c]pyridin-6-yl)(1-methyl-1H-indol-4-yl)methanone], with 0.0011 µM. With `C[C@H]1c2nn(C)c(-c3cc(C(F)(F)F)nn3C)c2CCN1C(=O)c1ccc(OC(F)(F)F)cc1Cl` [Example 113, (S)-(2-Chloro-4-(trifluoromethoxy)phenyl)(2,7-dimethyl-3-(1-methyl-3-(trifluoromethyl)-1H-pyrazol-5-yl)-2,4,5,7-tetrahydro-6H-pyrazolo[3,4-c]pyridin-6-yl)methanone] the figure was 9.9 µM. As for `C[C@H]1c2nn(C)c(-c3cnn(C)c3C(F)(F)F)c2CCN1C(=O)c1n[nH]c2cc(F)cc(F)c12` [Example 28, (S)-(4,6-Difluoro-1H-indazol-3-yl)(2,7-dimethyl-3-(1-methyl-5-(trifluoromethyl)-1H-pyrazol-4-yl)-2,4,5,7-tetrahydro-6H-pyrazolo[3,4-c]pyridin-6-yl)methanone], the concentration for half-maximal inhibition (IC50) amounted to 2.12 µM. Then `COc1nccc(C(=O)N2CCc3c(nn(C)c3-c3cnn(C)c3C(F)(F)F)[C@@H]2C)c1C` [Example 60, (S)-(2,7-Dimethyl-3-(1-methyl-5-(trifluoromethyl)-1H-pyrazol-4-yl)-2,4,5,7-tetrahydro-6H-pyrazolo[3,4-c]pyridin-6-yl)(2-methoxy-3-methylpyridin-4-yl)methanone], with 4.25 µM; and `COc1cccc(C(=O)N2CCc3c(nn(C)c3-c3cc(C(F)(F)F)nn3C)[C@@H]2C)c1C` [Example 36, (S)-(2,7-Dimethyl-3-(1-methyl-3-(trifluoromethyl)-1H-pyrazol-5-yl)-2,4,5,7-tetrahydro-6H-pyrazolo[3,4-c]pyridin-6-yl)(3-methoxy-2-methylphenyl)methanone], with 0.023 µM; and `C[C@H]1c2nn(C)c(-c3cc(C(F)(F)F)nn3C)c2CCN1C(=O)c1cccc2c1OCCC2` [Example 54, (S)-Chroman-8-yl(2,7-dimethyl-3-(1-methyl-3-(trifluoromethyl)-1H-pyrazol-5-yl)-2,4,5,7-tetrahydro-6H-pyrazolo[3,4-c]pyridin-6-yl)methanone], with 0.016 µM. With `Cc1ccc2nc(C)cc(C(=O)N3CCc4c(nn(C)c4-c4cc(C(F)(F)F)nn4C)[C@@H]3C)c2c1` [Example 25, (S)-(2,7-Dimethyl-3-(1-methyl-3-(trifluoromethyl)-1H-pyrazol-5-yl)-2,4,5,7-tetrahydro-6H-pyrazolo[3,4-c]pyridin-6-yl)(2,6-dimethylquinolin-4-yl)methanone] the figure was 0.09 µM. Then `C[C@H]1c2nn(C)c(-c3cc(C(F)(F)F)nn3C)c2CCN1C(=O)c1cc(F)ccc1-n1cccn1` [Example 37, (S)-(2,7-Dimethyl-3-(1-methyl-3-(trifluoromethyl)-1H-pyrazol-5-yl)-2,4,5,7-tetrahydro-6H-pyrazolo[3,4-c]pyridin-6-yl)(5-fluoro-2-(1H-pyrazol-1-yl)phenyl)methanone], with 0.38 µM; and `C[C@H]1c2nn(C)c(-c3cc(C(F)(F)F)nn3C)c2CCN1C(=O)c1cccc(N2CC3(COC3)C2)c1Cl` [Example 4, (S)-(2-Chloro-3-(2-oxa-6-azaspiro[3.3]heptan-6-yl)phenyl)(2,7-dimethyl-3-(1-methyl-3-(trifluoromethyl)-1H-pyrazol-5-yl)-2,4,5,7-tetrahydro-6H-pyrazolo[3,4-c]pyridin-6-yl)methanone], with 0.02 µM; and `Cc1cccn2ncc(C(=O)N3CCc4c(nn(C)c4-c4cc(C(F)(F)F)nn4C)[C@@H]3C)c12` [Example 7, (S)-(2,7-Dimethyl-3-(1-methyl-3-(trifluoromethyl)-1H-pyrazol-5-yl)-2,4,5,7-tetrahydro-6H-pyrazolo[3,4-c]pyridin-6-yl)(4-methylpyrazolo[1,5-a]pyridin-3-yl)methanone], with 0.05 µM. In turn, `C[C@H]1c2nn(C)c(-c3cnn(C)c3C(F)(F)F)c2CCN1C(=O)c1nn(C)c2cc(F)cc(F)c12` [Example 27, (S)-(4,6-Difluoro-1-methyl-1H-indazol-3-yl)(2,7-dimethyl-3-(1-methyl-5-(trifluoromethyl)-1H-pyrazol-4-yl)-2,4,5,7-tetrahydro-6H-pyrazolo[3,4-c]pyridin-6-yl)methanone] returned a half-inhibitory concentration (IC50) of 1.17 µM. Molecule `COc1cc(C(=O)N2CCc3c(nn(C)c3-c3cc(C(F)(F)F)n(C)n3)[C@@H]2C)c2ccccc2n1` [Example 20, (S)-(2,7-Dimethyl-3-(1-methyl-5-(trifluoromethyl)-1H-pyrazol-3-yl)-2,4,5,7-tetrahydro-6H-pyrazolo[3,4-c]pyridin-6-yl)(2-methoxyquinolin-4-yl)methanone] gave an IC50 of 0.0082 µM. With `Cc1nc2ccc(C(=O)N3CCc4c(nn(C)c4-c4cc(C(F)(F)F)nn4C)[C@@H]3C)cc2s1` [Example 58, (S)-(2,7-Dimethyl-3-(1-methyl-3-(trifluoromethyl)-1H-pyrazol-5-yl)-2,4,5,7-tetrahydro-6H-pyrazolo[3,4-c]pyridin-6-yl)(2-methylbenzo[d]thiazol-6-yl)methanone] the figure was 0.055 µM; with `Cc1ccc2c(C)c(C(=O)N3CCc4c(nn(C)c4-c4cc(C(F)(F)F)nn4C)[C@@H]3C)ccc2n1` [Example 92, (S)-(2,7-Dimethyl-3-(1-methyl-3-(trifluoromethyl)-1H-pyrazol-5-yl)-2,4,5,7-tetrahydro-6H-pyrazolo[3,4-c]pyridin-6-yl)(2,5-dimethylquinolin-6-yl)methanone], 0.38 µM.

Consider `C[C@H]1c2nn(C)c(-c3cc(C(F)(F)F)nn3C)c2CCN1C(=O)c1cnn2cc(F)cc(F)c12` [Example 17, (S)-(4,6-Difluoropyrazolo[1,5-a]pyridin-3-yl)(2,7-dimethyl-3-(1-methyl-3-(trifluoromethyl)-1H-pyrazol-5-yl)-2,4,5,7-tetrahydro-6H-pyrazolo[3,4-c]pyridin-6-yl)methanone], for which the 50% inhibitory concentration (IC50) is 0.02 µM. Then `C[C@H]1c2nn(C)c(-c3cc(C(F)(F)F)nn3C)c2CCN1C(=O)c1ccc2ncccc2c1` [Example 65, (S)-(2,7-Dimethyl-3-(1-methyl-3-(trifluoromethyl)-1H-pyrazol-5-yl)-2,4,5,7-tetrahydro-6H-pyrazolo[3,4-c]pyridin-6-yl)(quinolin-6-yl)methanone], with 0.039 µM.
